Results as given in publication PMC7494974, “Olfactory Reception of Host Alarm Pheromone Component by the Odorant-Binding Proteins in the Samurai Wasp, Trissolcus japonicus (Hymenoptera: Scelionidae)” (Frontiers in Physiology, 2020).

How the values were obtained:
Type in all cases: binding
TjapOBP2 [1] = biological target: T1, TjapOBP2 (Trissolcus japonicus, UniProt A0A7G6J4J8); assay: fluorescence titration, Scatchard; conditions: 50 mM Tris-HCl pH 7.4; excitation 337 nm; fluorescent probe
T1 construct: gene OBP2; mature, signal peptide removed; E. coli BL21; His-tag cleaved; ~15 kDa on SDS-PAGE; classical OBP; by primers starts KRPDFIDDDM and ends QCIINNCPEMWFIV
T1 sequence (A0A7G6J4J8 23-142): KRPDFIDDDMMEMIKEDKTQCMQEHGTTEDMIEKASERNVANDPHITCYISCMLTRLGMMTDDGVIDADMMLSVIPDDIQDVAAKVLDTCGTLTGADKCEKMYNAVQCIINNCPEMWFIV

TjapOBP3 [2] = biological target: T2, TjapOBP3 (Trissolcus japonicus, UniProt A0A7G6J4J9); assay: fluorescence titration, Scatchard; conditions: 50 mM Tris-HCl pH 7.4; excitation 337 nm; fluorescent probe
T2 construct: gene OBP3; mature, signal peptide removed; E. coli BL21; His-tag cleaved; ~15 kDa on SDS-PAGE; classical OBP; by primers starts KLSVPQLK and ends CWYHKNPEMYIFP
T2 sequence (A0A7G6J4J9 22-142): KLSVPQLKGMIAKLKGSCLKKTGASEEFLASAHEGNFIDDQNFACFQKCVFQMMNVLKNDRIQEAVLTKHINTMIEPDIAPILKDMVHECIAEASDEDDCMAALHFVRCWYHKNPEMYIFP

TjapOBP2 [3] = biological target: T1, TjapOBP2; assay: competitive fluorescence displacement of 1-NPN
TjapOBP3 [4] = biological target: T2, TjapOBP3; assay: competitive fluorescence displacement of 1-NPN; conditions: 50 mM Tris-HCl pH 7.4; excitation 337 nm; competitive with 1-NPN

Row | IC50 (TjapOBP2 [3]) [µM] | Compound | K1-NPN (TjapOBP2 [1]) | K1-NPN (TjapOBP3 [2]) | competitive fluorescence displacement of 1-NPN (TjapOBP3 [4])
1 | – | c1ccc(Nc2cccc3ccccc23)cc1 [1-NPN] | The fluorescent probe 1-NPN was used to bind the selected OBPs | The fluorescent probe 1-NPN was used to bind the selected OBPs | –
2 | 7.92 ± 1.03 | CCCCCCC/C=C/C=O [(E)-2-decenal] | – | – | TjapOBP1 and TjapOBP3 had a weak ability to bind (E)-2-decenal
